Earlier results, collected in US20240100008A1, “ADMINISTRATION OF GLYCEROL TRIBENZOATE AND GLYCEROL PHENYLBUTYRATE FOR TREATMENT OF NEURODEGENERATIVE AND UREA CYCLE DISORDERS” (Rush University Medical Center, priority 2020, published 2024).

Key:
[1] = not given; remark: listed apart in the source
[2] = system: multiple sclerosis in mice
[3] = system: DJ-1; conditions: astrocytes and neurons
[4] = system: BDNF; conditions: brain cells
[5] = system: NT-3; conditions: brain cells
[6] = system: animal model of Alzheimer's disease

O=C(CCCc1ccccc1)OCC(COC(=O)CCCc1ccccc1)OC(=O)CCCc1ccccc1 [glycerol phenylbutyrate, Glycerol phenylbutyrate]
side effect (in vivo, po): diarrhea is a common side effect

O=C(OCC(COC(=O)c1ccccc1)OC(=O)c1ccccc1)c1ccccc1 [glyceryl (i.e. glycerol) tribenzoate, glycerol tribenzoate]
release form of sodium benzoate ([1]; in vivo): sustained-release and a slow-release form

O=C([O-])c1ccccc1.[Na+] [sodium benzoate, Sodium benzoate]
disease process of multiple sclerosis [2]: suppresses | DJ-1 protein level [3]: upregulates | production of BDNF [4]: increases | production of NT-3 [5]: increases | memory and learning [6]: protecting memory and learning | oxidative stress [6]: attenuating oxidative stress | excretion from the body ([1]; through urine): quickly excreted | side effects (patients, high dose sodium benzoate several times a day): feel drowsy and also suffer from nausea, vomiting and headache
